Results reported in patent EP0456792B1, “IMPROVED SYSTEM FOR THE TRANSDERMAL APPLICATION OF PHARMACOLOGICALLY ACTIVE COMPOUNDS AT CONTROLLED pH” (Boehringer Ingelheim International GmbH, priority 1989, dated 1991).
Values joined by “and” are separate entries in the source; they are usually repeats but may differ in a detail not shown here. Equal values may be shown once.

Assays:
[1] = Flux rate of Clenbuterol through the skin as a function of the skin surface pH (Fig. 9); type: in vitro ADME, Mensch
Text: Überraschenderweise wurde nun festgestellt, daß bei einer transdermalen Applikation von Clenbuterol die Fluxrate für den Wirkstoff entscheidend verbessert werden kann, wenn der pH-Wert der Hautoberfläche auf einen Wert konstant zwischen 6,0 und 8,5 gehalten wird.
Die Fluxrate eines Wirkstoffes durch die Haut ist definiert als Menge des Wirkstoffes pro Hautoberfläche und pro Zeiteinheit und wird üblicherweise in [µg/cm^2 . h] angegeben. In dem oben angegebenen pH-Bereich erreicht die Fluxrate für Clenbuterol ihr Maximum, während bei höheren und niederen pH-Werten die Fluxrate stark abnimmt.
Der pH-Wert der Hautoberfläche ist beim Menschen individuell und temporär verschieden. Ein als Standard angenommener pH-Wert von […] bis 6,0 schwankt im Individualfall zwischen pH 4,5 und 8,0 und hängt von vielen unterschiedlichen Faktoren ab. Schwankungen des pH-Wertes können daneben zum einen durch das Pflaster selbst und zum anderen durch den Wirkstoff hervorgerufen werden. Wie aus der Abb. I ersichtlich ist, nimmt die Fluxrate von Clenbuterol außerhalb des angegebenen pH-Bereichs drastisch ab, so daß eine ausreichende Permeabilität der Haut für Clenbuterol nicht mehr gewährleistet ist.
In Fig. 9 ist die Permeabilität P von Clenbuterol durch die menschliche Haut aufgetragen (Funktion A); P ist angegeben in [cm/sec]. […]

[2] = Permeability of pH-modified Clenbuterol CPA through human skin, Franz cell; type: in vitro ADME, Mensch; conditions: Zelle 1-3 are replicates
Description: Permeabilität von pH-Wort modifiziertem Clenbuterol CPA durch Humanhaut:
Zusammensetzung der CPA's:
Als Freigabeapparatur wurde eine Franz-Zelle verwendet. Dies ist eine übliche Methode, um die Abgabe von Arzneistoffen aus pharmazeutischen Formulierungen zu testen. Proben wurden nach 24 h bzw. 48h entnommen und der Gehalt an Clenbuterol bestimmt.

[3] = CPA pH-Wert 3.5 (5 % Clenbuterol, 5 % Zitronensäure, 90 % Eudragit E 30 D)
[4] = CPA pH-Wert 10.0 (5 % Clenbuterol, 5 % Na2CO3, 90 % Eudragit E 30 D)

## CC(C)(C)NCC(O)c1cc(Cl)c(N)c(Cl)c1 (stereo not drawn) [Clenbuterol]
[1]; at pH values higher and lower than the range 6,0 to 8,5
  Fluxrate: stark abnimmt
[1]; skin surface pH between 6,0 and 8,5
  Fluxrate: Maximum
[2]; [3]
  Clenbuterol Diffusion nach 24 h: 3.48 µg/cm^2 and 0.65 µg/cm^2 and 2.64 µg/cm^2
  Clenbuterol Diffusion nach 48 h: 5.52 µg/cm^2 and 1.69 µg/cm^2 and 6.04 µg/cm^2
[2]; [4]
  Clenbuterol Diffusion nach 24 h: 7.8 µg/cm^2 and 11.44 µg/cm^2 and 9.84 µg/cm^2
  Clenbuterol Diffusion nach 48 h: 21.7 µg/cm^2 and 27.3 µg/cm^2 and 24.2 µg/cm^2
